Results published in ChEMBL document CHEMBL1150711, “Maquiroside A, a new cytotoxic cardiac glycoside from Maquira calophylla” (1987).
Values after ≈ are worked out from the molar mass of the structure shown.

System: KB
Experiment: Cytotoxicity against human KB cells
Assay type: functional
Conditions: read-out: ED50 (the source's name)

CO[C@H]1C[C@H](O[C@H]2CC[C@@]3(CO)[C@H](CC[C@@H]4[C@@H]3CC[C@]3(C)[C@@H](C5=CC(=O)OC5)CC[C@]43O)C2)O[C@H](C)[C@H]1O [MAQUIROSIDE A]
EC50: 0.013 µg/mL (≈ 0.0243 µM)
